Test results taken from article PMC8786951, “Identification of an allatostatin C signaling system in mollusc Aplysia” (Scientific Reports, 2022).
Several values for one entry are separate records, joined by “and”; a condition that tells them apart may be missing. Equal entries are not always repeated. Where two headings read alike, the source gives them in different places. Where a SMILES comes first, the peptide text is derived from it. Bridges are numbered along the chain shown (N, C = ends).

Tests used:
AstC-R = target: T1, AstC-R (Aplysia californica, UniProt A0ABM0JJJ7); assay: IP1 accumulation assay, CHO-K1 cells expressing putative receptor AstC-R; format: cell-based; conditions: for EC50: IP1 accumulation, CHO cells co-transfected with AstC-R and Gα16 plasmids, peptide 10^–12 M to 10^–4 M; for Screening: IP1 concentration on AstC-R at 10^–5 M vs 10^–10 M: CHO cells co-transfected with AstC-R and Gα16, 10^–10 M used as control, paired t-test, n = 6 (AstC' n = 5; AstCG-DP, SPTR n = 3); for IP1 response of AstC-R, preliminary experiments: CHO cells transfected with receptor plasmid only, without Gα16
T1 sequence (A0ABM0JJJ7 1-425): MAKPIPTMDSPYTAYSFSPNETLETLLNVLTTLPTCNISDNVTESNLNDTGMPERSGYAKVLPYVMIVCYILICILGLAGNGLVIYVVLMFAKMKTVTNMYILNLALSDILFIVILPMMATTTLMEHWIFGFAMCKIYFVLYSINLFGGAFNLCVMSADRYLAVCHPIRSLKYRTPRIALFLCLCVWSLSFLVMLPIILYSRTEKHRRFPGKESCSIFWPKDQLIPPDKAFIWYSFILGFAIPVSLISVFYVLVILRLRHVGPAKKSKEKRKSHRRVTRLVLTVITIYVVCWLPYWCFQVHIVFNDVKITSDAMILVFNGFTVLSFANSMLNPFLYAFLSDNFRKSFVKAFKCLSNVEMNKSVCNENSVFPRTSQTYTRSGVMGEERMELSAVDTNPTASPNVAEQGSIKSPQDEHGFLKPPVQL
Source text: Because Gα16 is a promiscuous Gαq protein that will bind to most GPCRs[10],[53], this procedure would ensure an IP1 response when a potential ligand binds to its GPCR.
Inositol monophosphate 1 (IP1) accumulation assay measures concentration of IP1, that is hydrolyzed from the second messenger, […] (IP3), generated by Gαq pathway when a G-protein coupled receptor (GPCR) expressed in CHO-K1 cells is activated by an appropriate ligand. In order to express the Aplysia putative receptors transiently in CHO-K1, the cDNA was cloned into the mammalian expression vector pcDNA3.1( +). […] Transfection experiments were performed when the cells were grown to 70–90% confluence. In preliminary experiments, for each dish (60-mm diameter), 4 μg of the putative receptor plasmids [in pcDNA3.1( +)] were mixed with 400 μl of Opti-MEM (Gibco, 11058021), followed by the addition of 15 μl of Turbofect (Thermo Fisher Scientific, R0531). […] The CHO cells with the reagents added above were mixed gently, and incubated at room temperature for 15 min. The DNA/Turbofect mixture dropwise was then added to the dish, and the cells were incubated at 37 °C in 5% CO2 overnight. The next day, the cells were trypsinized and reseeded in opaque white 96-well half-area (Corning, 3688) or 384-well tissue culture-treated plates (Corning, 3570) at a density of 20,000 cells/well in F-12K and 10% FBS and incubated at 37 °C in 5% CO2 overnight. On the third day, the activation of the putative receptor was detected by monitoring IP1 accumulation using IP1 detection kit (Cisbio, 62IPAPEB) in Tecan Spark. Except for using 0.5 × reagent, all other procedures were performed in accordance with the IP1 detection kit manufacturer’s instructions. Peptides are synthesized by Sangon Biotech, Guoping Pharmaceutical or ChinaPeptides (Supplementary Fig. 4), and are aliquoted in 50 nmol EP tubes, stored at −20 °C until use.

Class-A_GPCR1 = assay: IP1 accumulation assay, CHO-K1 cells expressing putative receptor Class-A_GPCR1 (control); format: cell-based, Aplysia californica; conditions: CHO cells transfected with receptor plasmid only, without Gα16
Source text: We cloned AstC-R and Class-A_GPCR1 into pcDNA3.1 plasmids, and expressed them in CHO cells. We then used the IP1 accumulation assay that detects IP1 generated in the Gαq pathway (see Methods) to determine whether our predicted Aplysia peptides (i.e., AstC or AstCG-DP) and other related peptides which we synthesized (see Fig. 7G) could activate the receptors. In preliminary experiments, we only transfected plasmids for a putative receptor in CHO cells. […] Thus, for all the experiments shown in Fig. 7, we co-transfected plasmids for the putative receptor and Gα16 plasmids in CHO cells. Because Gα16 is a promiscuous Gαq protein that will bind to most GPCRs[10],[53], this procedure would ensure an IP1 response when a potential ligand binds to its GPCR.
Inositol monophosphate 1 (IP1) accumulation assay measures concentration of IP1, that is hydrolyzed from the second messenger, […] (IP3), generated by Gαq pathway when a G-protein coupled receptor (GPCR) expressed in CHO-K1 cells is activated by an appropriate ligand. In order to express the Aplysia putative receptors transiently in CHO-K1, the cDNA was cloned into the mammalian expression vector pcDNA3.1( +). […] On the third day, the activation of the putative receptor was detected by monitoring IP1 accumulation using IP1 detection kit (Cisbio, 62IPAPEB) in Tecan Spark. […]

Platynereis receptor = conditions: annelid Platynereis dumerilii allatostatin C on its putative receptor; cited from earlier work
Source text: Growing databases of the Aplysia genome and transcriptome are becoming available, but relatively few studies have taken advantage of this information (see[53],[54]). […] Previous bioinformatic studies in several molluscs predicted the presence of an allatostatin C precursor (Fig. 3, e.g.,[57]) and of AstC with the ...

[1] = average EC50, n = 3, read-out: [EC50] on AstC-R
[2] = average log[EC50], n = 3, read-out: log[EC50] on AstC-R (converted)

Molecule	EC50 (AstC-R; [1]) [nM]	EC50 (AstC-R; [2]) [nM]	Screening: IP1 concentration on AstC-R at 10^–5 M vs 10^–10 M (AstC-R)	also measured
CC[C@H](C)[C@@H]1NC(=O)[C@H](CC(C)C)NC(=O)[C@H](CC(N)=O)NC(=O)[C@H](C(C)C)NC(=O)[C@H](CC(C)C)NC(=O)[C@@H](NC(=O)[C@H](CCSC)NC(=O)[C@@H](NC(=O)[C@H](Cc2c[nH]cn2)NC(=O)[C@@H](N)CO)C(C)C)CSSC[C@@H](C(=O)N[C@@H](Cc2ccccc2)C(=O)O)NC(=O)[C@H](CO)NC1=O [AstC-L] (H-SHVMCLVNLISCF-OH; disulfide 5-12)	111	63.1	–	–
MRYMG1CMKKQYNNF1PFPCLRS-NH2 (disulfide) [SPTR, another Aplysia peptide also with a disulfide bridge, reference compound]	–	–	did not activate AstC-R significantly	–
CC[C@H](C)[C@H](NC(=O)[C@H](Cc1c[nH]cn1)NC(=O)[C@@H](N)CO)C(=O)N[C@@H](CCCNC(=N)N)C(=O)N[C@H]1CSSC[C@@H](C(=O)N[C@@H](Cc2ccc(O)cc2)C(=O)O)NC(=O)[C@H](C)NC(=O)[C@H]([C@@H](C)CC)NC(=O)[C@H](C(C)C)NC(=O)[C@H](CC(N)=O)NC(=O)[C@H](C(C)C)NC(=O)[C@H](CC(C)C)NC1=O [AstC-C] (H-SHIRCLVNVIACY-OH; disulfide 5-12)	111	–	–	–
AVIPVSSPEPMEEASALQLLPGKI-NH2 [AstCG-DP, AstC gene-derived peptide predicted from the Aplysia AstC precursor, C-terminally amidated]	–	–	did not activate AstC-R significantly	IP1 response of AstC-R, preliminary experiments (AstC-R): none of the receptors responded; IP1 response of Class-A_GPCR1, preliminary experiments (Class-A_GPCR1): none of the receptors responded
CSCC[C@H](NC(=O)[C@H](CO)NC(=O)[C@H](CC(N)=O)NC(=O)[C@H](Cc1ccc(O)cc1)NC(=O)[C@H](Cc1c[nH]cn1)NC(=O)[C@@H](N)CO)C(=O)N[C@H]1CSSC[C@@H](C(=O)N[C@@H](Cc2ccc(O)cc2)C(=O)O)NC(=O)[C@H](C)NC(=O)[C@H](C(C)C)NC(=O)[C@H](C(C)C)NC(=O)[C@H](CC(N)=O)NC(=O)[C@H](Cc2ccccc2)NC(=O)[C@H](CCSC)NC1=O [AstC-T] (H-SHYNSMCMFNVVACY-OH; disulfide 7-14)	17.7	–	–	–
CSCC[C@H](NC(=O)[C@H](CO)NC(=O)[C@H](CO)NC(=O)[C@H](Cc1ccc(O)cc1)NC(=O)[C@@H](N)[C@@H](C)O)C(=O)N[C@H]1CSSC[C@@H](C(=O)N[C@@H](Cc2ccc(O)cc2)C(=O)O)NC(=O)[C@H](C)NC(=O)[C@H](C(C)C)NC(=O)[C@H](C(C)C)NC(=O)[C@H](CC(N)=O)NC(=O)[C@H](Cc2ccccc2)NC(=O)[C@H](CCSC)NC1=O [AstC-D] (H-TYSSMCMFNVVACY-OH; disulfide 6-13)	18.9	15.8	–	–
CSCC[C@H](NC(=O)[C@H](CO)NC(=O)[C@H](CO)NC(=O)[C@H](Cc1ccc(O)cc1)NC(=O)[C@H](Cc1c[nH]cn1)NC(=O)[C@@H](N)CO)C(=O)N[C@H]1CSSC[C@@H](C(=O)N[C@@H](Cc2ccc(O)cc2)C(=O)O)NC(=O)[C@H](C)NC(=O)[C@H](C(C)C)NC(=O)[C@H](C(C)C)NC(=O)[C@H](CC(N)=O)NC(=O)[C@H](Cc2ccccc2)NC(=O)[C@H](CCSC)NC1=O [AstC] (H-SHYSSMCMFNVVACY-OH; disulfide 7-14; N-terminus assumed)	7.8	6.31	significantly increased IP1 concentration	IP1 response of AstC-R, preliminary experiments (AstC-R): none of the receptors responded; IP1 response of Class-A_GPCR1, preliminary experiments (Class-A_GPCR1): none of the receptors responded
pQPVQCLVNIVSCWamide (disulfide) [allatostatin C]	–	–	–	EC50 (Platynereis receptor): 1000 nM and 1200 nM
